Series [1] has as its system early phase of insulin secretion. The conditions noted are these: dose-dependent; cited from earlier work.
For series [2] the following is noted: children with obesity secondary to cranial insult and insulin hypersecretion; cited from earlier work.
For series [3] the following is noted: long-term usage, acromegaly or other disorders; cited from earlier work.
The target in series [4] is somatostatin receptor-5 (SSTR5) (Homo sapiens, UniProt P35346). The conditions noted are these: on the β-cell; cited from earlier work.
Series [5] can be described thus: Fasting leptin and IGF-1 (RIA), octreotide-LAR 24 weeks. It counts as in vivo, human. As to conditions: Week 24-Week 0; High Responders (n = 8).
A short description of series [6]: Safety: blood pressure, glucose (FBG, CBG, HbA1c, IGT), TSH, free T4, lipids, adverse events, octreotide-LAR 24 weeks.
Experimental: Inclusion criteria were ages 18-65 years and body mass index (BMI)≧35. The screening evaluation included a complete history and physical examination, and the following studies: Comprehensive Metabolic Panel (CMP), serum glucose 2 hours after an 75 gm oral glucose load, gallbladder ultrasound, and urine pregnancy test (if female). Exclusion criteria included gallstones, hypertension, diabetes mellitus (by ADA criteria), renal or liver disease, or use of chronic medications except for thyroid or estrogen supplementation. Subjects were evaluated every four weeks for 24 weeks. […]
Chemical Analyses: Serum glucose during OGTT was measured by the glucose oxidase method (Kadish, et al., “A new and rapid method for the determination of glucose by measurement of rate of oxygen consumption,” Clin Chem, 14:116-119 (1968), which is hereby incorporated by reference in its entirety). Serum immunoreactive insulin (μU/ml) and C-peptide (ng/ml) levels from each OGTT sample were measured by standard double-antibody radioimmunoassay (RIA) (Linco Research; St Louis, Mo.). Leptin was measured by double antibody RIA, and IGF-1 by competitive binding RIA (Endocrine Sciences; Calabasas Hills, Calif.). […]

somatostatin receptor-5 (SSTR5), sequence (P35346 whole entry, species assumed): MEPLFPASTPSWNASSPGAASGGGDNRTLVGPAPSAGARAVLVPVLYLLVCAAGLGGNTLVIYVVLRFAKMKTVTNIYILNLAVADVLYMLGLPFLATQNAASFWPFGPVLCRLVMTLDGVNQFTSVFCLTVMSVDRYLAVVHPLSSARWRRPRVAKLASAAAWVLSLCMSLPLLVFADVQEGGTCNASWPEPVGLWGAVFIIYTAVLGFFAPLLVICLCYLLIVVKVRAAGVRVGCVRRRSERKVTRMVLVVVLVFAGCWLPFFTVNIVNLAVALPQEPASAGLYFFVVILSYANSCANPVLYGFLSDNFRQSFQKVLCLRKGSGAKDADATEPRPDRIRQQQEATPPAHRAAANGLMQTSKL

With “D-phenylalanyl-L-cysteinyl-L-phenylalanyl-D-tryptophyl-L-lysyl-L-threonyl-N-[2-hydroxy-1(hydroxymethyl)propyl]-L-cysteinamide cyclic (2=>7)-disulfide [octreotide]”, in series [1], the “Early phase of insulin secretion” value is reported as “inhibit”. Moreover, the Weight result in series [2] was “promotes weight loss”. For the same substance, the “Weight and fat mass” value in series [3] is recorded as “minimal positive effect”. Moreover, the “Binding to somatostatin receptor-5 (SSTR5)” value in series [4] is given as “binds”. In addition, in series [5], the “Δ IGF-1” value was “least suppression”. Moreover, the “HR subjects demonstrating IGT” value in series [6] (at Week 0 and at Week 24) is listed as “none”. Moreover, the “Percent of subjects with IGT” value in series [6] (end of the study (32% before treatment)) was found to be 73%.

The record behind these values is patent US20020156010A1 (priority 2000, published 2002).
